In brackets after ≈: the same amount, converted by molar mass. Where two headings read alike, the source gives them in different places. One block for each compound: values may come before it.
Assays:
[1] = Solid-state stability evaluation test (XRPD and HPLC); format: physicochemical
Experimental: (§1) The purity test, dynamic solubility test, and stability test in the assay were performed using an ultra-performance liquid chromatograph (UPLC).
Their physical and chemical stability were evaluated by XRPD and HPLC.

[2] = Hygroscopicity test (DVS); format: physicochemical
Experimental: Dynamic vapor sorption (DVS) curves were collected on DVS Intrinsic Plus from SMS (Surface Measurement Systems). The relative humidity at 25°C was corrected using the deliquescence points of LiCl, Mg(NO3)2, and KCl.

[3] = Dynamic solubility test of crystal forms in H2O, SGF, FaSSIF and FeSSIF; format: physicochemical; settings: 37°C; for S: concentration of the compound represented by formula I-3B / solubility thermodynamic at 24 h: loading 10 mg/mL; for solubility thermodynamic at 24 h: read-out: S: concentration of the compound represented by formula I-3B; for FC: crystal form conversion: XRPD; for pH: filtrate
Experimental: as §1
After sampling at each time point, the samples were centrifuged (12,000 rpm, 2 minutes) and filtered (0.45 µm PTFE membrane), and the HPLC concentration and pH value of the filtrate were measured. The solid samples after centrifugation were tested for XRPD.

15-PGDH = biological target: T1, 15-PGDH (Homo sapiens, UniProt P15428); test: 15-PGDH enzyme inhibition assay (fluorescence, NAD+/PGE2); format: biochemical; settings: 15-PGDH inhibition
T1 construct: purchased R&D Systems 5660-DH-010
T1 sequence (P15428 1-266): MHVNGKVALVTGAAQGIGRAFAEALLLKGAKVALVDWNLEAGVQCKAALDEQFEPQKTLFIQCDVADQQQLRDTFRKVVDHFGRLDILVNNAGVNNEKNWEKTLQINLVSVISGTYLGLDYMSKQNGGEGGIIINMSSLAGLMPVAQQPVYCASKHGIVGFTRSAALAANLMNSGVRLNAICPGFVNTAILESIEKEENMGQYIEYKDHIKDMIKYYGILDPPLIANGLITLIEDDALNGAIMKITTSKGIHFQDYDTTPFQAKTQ
Experimental: 15-PGDH (R&D Systems, Cat. No. 5660-DH-010) was prepared to twice the final concentration, i.e., 30 nM, using Assay Buffer (50 mM Tris-HCl, pH 7.5, 0.01% Tween 20 by volume). 15-PGDH was then added to a 384-well white plate (Cisbio Bioassays, Cat. No. 66PL384025) at 8 µL/well. Negative control wells (with Assay Buffer only and without enzyme) were set. The compound was then prepared to 4 times the final concentration using Assay Buffer, i.e., diluted 3-fold to 10 concentrations starting from 4000 nM. The compound was added to the above white plate at 4 µL/well, mixed well, centrifuged at 1000 rpm for 1 minute, and incubated at 25°C for 10 minutes. Both positive control wells (with 15-PGDH only) and negative control wells (without 15-PGDH) were set. A mixture of NAD^+ (Select, Cat. No. S2518) and PGE2 (R&D Systems, Cat. No.:2296110) was then prepared using Assay Buffer. NAD^+ and PGE2 were prepared to four times their final concentrations, i.e., 2 mM and 0.12 mM, respectively, using Assay Buffer. The mixture was then added to the above white plate at 4 µL/well, mixed well, centrifuged at 1000 rpm for 1 minute, and incubated at 25°C for 30 minutes for the reaction. The fluorescence was measured at an excitation wavelength of 340 nm and an emission wavelength of 485 nm using a TECAN SPARK 20M microplate reader. The IC50 value was calculated using four-parameter fitting with GraphPad Prism 8.0.

[4] = Pharmacokinetics in mice (oral gavage); format: in vivo; settings: mouse, plasma, male CD-1 mice, 10 mg/kg
Experimental: The pharmacokinetic properties of the compounds obtained in Example 1 in mice were determined with reference to the following experimental methods.
Three male CD-1 mice were administered by oral gavage at a dose of 10 mg/kg, and the vehicle was 5% DMSO + 10% Solutol + 85% Saline. The mice were fasted overnight, and the time points of blood collection were before administration and at 15 minutes, 30 minutes, 1 hour, 2 hours, 4 hours, 8 hours, and 24 hours after administration. Blood samples were centrifuged at 6,800 g for 6 minutes at 2 to 8°C, and plasma was collected and stored at - 80°C. 10 µL of plasma at each time point was taken and added with 200 µL of methanol containing 100 ng/mL internal standard. The mixture was vortexed, mixed well, and centrifuged at 18,000 g for 7 minutes at 2 to 8°C. 200 µL of the mixture was transferred to a 96-well injection plate for LC-MS/MS quantitative analysis. The main pharmacokinetic parameters were analyzed using WinNonlin 7.0 software with non-compartmental model.

HPLC purity ([1]; peak at RRT 0.52 (impurity), 25°C/60% RH/open/1 week): 0.22 area% | HPLC purity ([1]; peak at RRT 0.52 (impurity), 40°C/75% RH/open/1 week): 0.22 area% | HPLC purity ([1]; peak at RRT 0.52 (impurity), 60°C/closed/1 day): 0.22 area% | HPLC purity ([1]; peak at RRT 0.52 (impurity), Onset): 0.22 area% | HPLC purity ([1]; peak at RRT 0.97 (impurity), 25°C/60% RH/open/1 week): 0.10 area% | HPLC purity ([1]; peak at RRT 0.97 (impurity), 40°C/75% RH/open/1 week): 0.09 area% | HPLC purity ([1]; peak at RRT 0.97 (impurity), 60°C/closed/1 day): 0.10 area% | HPLC purity ([1]; peak at RRT 0.97 (impurity), Onset): 0.10 area% | moisture absorption weight gain ([2]; 25°C/80% RH): 1.112% | change in crystal form after DVS testing (XRPD) ([2]; before and after DVS testing): no change in crystal form
Compound: Cn1nc2cc(N3C[C@H]4C[C@H]4c4cc(C(=O)N5CCC(F)(F)CC5)cnc43)ccn2c1=O [listing 1 of 2 here]

S: concentration of the compound represented by formula I-3B ([3]; FaSSIF, 1 hour): 2.6 mg/mL | S: concentration of the compound represented by formula I-3B ([3]; FaSSIF, 4 hours): 2.5 mg/mL | solubility thermodynamic at 24 h ([3]; FaSSIF, 24 hours): 2700 µg/mL (≈ 6.13 mM) | S: concentration of the compound represented by formula I-3B ([3]; FeSSIF, 1 hour): 3.0 mg/mL | S: concentration of the compound represented by formula I-3B ([3]; FeSSIF, 4 hours): 3.4 mg/mL | solubility thermodynamic at 24 h ([3]; FeSSIF, 24 hours): 3900 µg/mL (≈ 8.85 mM) | S: concentration of the compound represented by formula I-3B ([3]; H2O, 1 hour): 3.3 mg/mL | S: concentration of the compound represented by formula I-3B ([3]; H2O, 4 hours): 2.6 mg/mL | S: concentration of the compound represented by formula I-3B ([3]; SGF, 1 hour): 5.3 mg/mL | S: concentration of the compound represented by formula I-3B ([3]; SGF, 4 hours): 5.1 mg/mL | FC: crystal form conversion ([3]; FaSSIF, 1 hour): No | FC: crystal form conversion ([3]; FaSSIF, 4 hours): No | FC: crystal form conversion ([3]; FaSSIF, 24 hours): No | FC: crystal form conversion ([3]; FeSSIF, 1 hour): No | FC: crystal form conversion ([3]; FeSSIF, 4 hours): No | FC: crystal form conversion ([3]; FeSSIF, 24 hours): No | FC: crystal form conversion ([3]; H2O, 1 hour): No | FC: crystal form conversion ([3]; H2O, 4 hours): No | FC: crystal form conversion ([3]; H2O, 24 hours): No | FC: crystal form conversion ([3]; SGF, 1 hour): No | FC: crystal form conversion ([3]; SGF, 4 hours): No | FC: crystal form conversion ([3]; SGF, 24 hours): No | pH ([3]; FaSSIF, 1 hour): 6.46 | pH ([3]; FaSSIF, 4 hours): 6.60 | pH ([3]; FaSSIF, 24 hours): 6.70 | pH ([3]; FeSSIF, 1 hour): 4.91 | pH ([3]; FeSSIF, 4 hours): 4.96 | pH ([3]; FeSSIF, 24 hours): 4.93 | pH ([3]; H2O, 1 hour): 8.57 | pH ([3]; H2O, 4 hours): 8.59 | pH ([3]; H2O, 24 hours): 8.95 | pH ([3]; SGF, 1 hour): 1.82 | pH ([3]; SGF, 4 hours): 1.94 | pH ([3]; SGF, 24 hours): 2.11 | solubility thermodynamic at 24 h ([3]; simulated gastric fluid, SGF, 24 hours): 4700 µg/mL (≈ 10.7 mM) | solubility thermodynamic at 24 h ([3]; water, H2O, 24 hours): 900 µg/mL (≈ 2.04 mM)
Compound: Cn1nc2cc(N3C[C@H]4C[C@H]4c4cc(C(=O)N5CCC(F)(F)CC5)cnc43)ccn2c1=O [listing 2 of 2 here]

IC50 (15-PGDH): 4.2 nM | AUC(0-t) [4]: 35500 ng·h/mL | Cmax [4]: 3710 ng/mL
Compound: Cn1nc2cc(N3CC4CC4c4cc(C(=O)N5CCC(F)(F)CC5)cnc43)ccn2c1=O (centres unmarked) [compound I-3, 7-(6-(4,4-difluoropiperidine-1-carbonyl)-1,1a,2,7b-tetrahydro-3H-cyclopropa[c][1,8]naphthyridin-3-yl)-2-methyl-[1,2,4]triazolo[4,3-a]pyridin-3(2H)-one]

IC50 (15-PGDH): 12.2 nM
Compound: Cn1nc2cc(N3CC4CC4c4cc(C(=O)N5CCC(F)(F)CC5)cnc43)ccn2c1=O (centres unmarked) [compound I-3A]

Source: patent publication EP4711372A1, “CRYSTAL FORM OF HETEROCYCLIC COMPOUND, SALT THEREOF, CRYSTAL FORM OF SALT THEREOF, AND USE” (Hubei Bio-Pharmaceutical Industrial Technological Institute …, priority 2023, dated 2024)
